Measurements from patent US20090216117A1, “NOVEL METHOD OF USING TRIACETIN AND AUXILIARY AGENT FOR ULTRASONIC DIAGNOSTIC EXAMINATION” (SHINSHU UNIVERSITY, priority 2005, published 2009).
Entries after “also recorded” stand apart in the source; their conditions may differ.

Legend:
Beagles [1] = assay: Test 2: Pylorus occlusion test (gastric emptying, Evans blue recovery from duodenum); format: in vivo; conditions: for suppression of quantitative gastric emptying in comparison with physiological saline: 50 mL test fluid into stomach; for percent emptied: after 50 minutes, almost all physiological saline emptied by about 30 minutes
Procedure: To 10 mL of triacetin (Wako Pure Chemical Industries, Ltd.), 40 mL of water was added to make a total volume of 50 mL, thereby making test fluid A.
Ten milliliters of olive oil (Wako Pure Chemical Industries, Ltd.) and 10 mL of propylene glycol were mixed and water was added to make a total volume of 50 mL, thereby making test fluid B.
Half a gram of stearic acid (Wako Pure Chemical Industries, Ltd.) and 20 mL of propylene glycol were mixed and water was added to make a total volume of 50 mL, thereby making test fluid C.
Beagles each weighing about 10 kg were given general anesthesia with an injection of Nembutal (Dainippon Pharmaceutical Co., Ltd.) and following middle incision, tubes were inserted into the body of stomach and the duodenum as shown in FIG. 8 and with each tube being passed subcutaneously through the flank to the back, the dogs received a preliminary invasive operation for an experiment under an unanesthetized condition.
Starting six days after the operation when there were no longer the effects of anesthesia and those of the operative invasion and the general condition had recovered, the study of the sample fluids of interest was started. To be more specific, it is well known that the gastric emptying capability is suppressed under an anesthetized condition, so in the Example under consideration, in order to eliminate that effect and also to determine data for a more normal state, an experiment was conducted under a chronic unanesthetized condition.
To each test fluid, 5 mg of Evans blue (Wako Pure Chemical Industries, Ltd.) was added and 50 mL of the mixture was injected into the stomach of each beagle through the tube indicated by 1 in FIG. 8. Similarly, a tube was placed in the duodenum and the test fluid emptied from the stomach was recovered through the tube indicated by 2 in FIG. 8. At given time intervals, the emptied test fluid was recovered by suction (for one minute) through the tube left in place in the duodenum and the Evans blue contained in it was measured for absorbance (DU R640 SPECTRO PHOTOMETER, product of Beckman Inc.) at a wavelength of 605 nm, to thereby measure the concentration of Evans blue in the suctioned fluid; the amount of recovery was used to determine the gastric emptying rate.

[2] = Dissolution of triacetin in water; format: physicochemical; conditions: ordinary temperature
Text: If the auxiliary agent for examination in ultrasonic imaging diagnosis is used in the state of an emulsion, the oil-water interface will reflect ultrasound and affect its propagation. […] For instance, triacetin described in the present invention can be dissolved in water in an amount of about 7% at ordinary temperature without forming an emulsion and this concentration is sufficient for suppressing gastric motility.

[3] = Test 1: viscosity comparison with Brookfield viscometer; format: physicochemical
Procedure: Using water (ion-exchanged water), an aqueous solution of triacetin, and an aqueous solution of sodium alginate which is a typical viscosity enhancing polysaccharide (KIMICA Corporation, Grade: IL-2), viscosity comparison was made. Viscosity was measured with a Brookfield viscometer (product of TOKIMEC INC., Model BM).

Beagles [4] = assay: Test 3: Measurement of gastric contractile motion by strain gage; format: in vivo
Procedure: Two hundred microliters of triacetin (Wako Pure Chemical Industries, Ltd.) was dissolved in distilled water to make a volume of 20 mL, thereby making test fluid D.
Four milliliters of olive oil (Wako Pure Chemical Industries, Ltd.) was dissolved in distilled water to make a volume of 20 mL, thereby making test fluid E.
Twenty milliliters of distilled water was used as control fluid F.
In order to measure muscular contraction with the strain gage, the submucosa was stretched so that the surface of the mucous membrane would not be incised and the strain gage was buried in the submucosa and sutured thereto, with the wound of incision being closed by a suture.
The tube and the strain gage were subcutaneously guided to the outside of the body from the flank to the back and the dogs received a preliminary invasive operation for an experiment under an unanesthetized condition.
Starting six days after the operation when there were no longer the effects of anesthesia and those of the operative invasion and the general condition had recovered, the study of the sample fluids of interest was started. […]
Note that signals from the strain gage were amplified (VC-11, NIHON KOHDEN) and then AD converted, with the resulting digital data being analyzed with Origin Version 6.5 (OriginLab Corporation). […]

amount that can be dissolved in water without forming an emulsion [2] | Viscosity ([3]; 0.2% aqueous solution) | Viscosity ([3]; 1.0% aqueous solution) | Viscosity ([3]; 5.0% aqueous solution) | Compound | suppression of quantitative gastric emptying in comparison with physiological saline (Beagles [1]) | percent emptied (Beagles [1]) | viscosity enhancement as compared with sodium alginate ([3]; aqueous solutions) | time at which the emptied amount peaked (Beagles [1]; 50 mL test fluid A into stomach, physiological saline peaked at about 5 minutes) | pylorus occluding effect (Beagles [1]; 50 mL test fluid injected into stomach, unanesthetized beagles, physiological saline as comparison) | change in amplitude and frequency of contractions (contractile motion of the stomach) (Beagles [4]; 20 μL/kg injected into stomach in phase III, fasted unanesthetized beagles) | duration of the suppression of contractile motion after injection (Beagles [4]; 20 μL/kg, change occurred immediately after the injection)
 |  |  |  | CCCCCCCCCCCCCCCCCC(=O)O [stearic acid, reference compound] | obvious suppression | about 10% |  |  |  |  | 
about 7% | 10.1 mPa · s | 10.8 mPa · s | 16.7 mPa · s | CC(=O)OCC(COC(C)=O)OC(C)=O [Triacetin, triacetin] | obviously suppressed | about 5% | considerably less effective in viscosity enhancement | 10 to 20 min | markedly effective in occluding the pylorus | obvious suppression of the contractile motion; also recorded: decreased both the amplitude and frequency of contractions | about three
